Reference: patent US11815511B2 (priority 2019, dated 2023)

Tested on: anti-4,15-diacetoxyscirpenol monoclonal antibody secreted by hybridoma cell strain DAS5G11E7
Type: binding, mouse
Settings: in ng/mL

Molecule | IC50
3-acetyldeoxynivalenol [3-acetyl-DON] | >100,000
CC1=C[C@H]2O[C@@H]3[C@H](O)C[C@](C)([C@@]2(CO)[C@H](O)C1=O)[C@]31CO1 [DON, Deoxynivalenol] | >100,000
C[C@@H]1Cc2c(Cl)cc(C(=O)N[C@@H](Cc3ccccc3)C(=O)O)c(O)c2C(=O)O1 [OTA, ochratoxin] | >100,000
HT-2 toxin | >100,000
